Test results taken from article PMC6222422, “Synthesis and Biological Evaluation of Novel Indole-Derived Thioureas” (Molecules : A Journal of Synthetic Chemistry and Natural …, 2018).

Assays:
HIV-1 = assay: microbe, parasite or virus in culture; settings: Human immunodeficiency virus 1, MT4, read-out: HIV-1 EC50
Sb-1 = assay: microbe, parasite or virus in culture; type: cell-based, poliovirus type-1; settings: Enterovirus C, Vero 76, read-out: Sb-1 EC50
in vitro [1] = settings: African green monkey (Cercopithecus aethiops)
in vitro [2] = settings: cattle (Bos taurus)
VSV = assay: microbe, parasite or virus in culture; type: cell-based; settings: Vesicular stomatitis virus, Vero 76, read-out: VSV EC50
BVDV = assay: microbe, parasite or virus in culture; type: cell-based, bovine viral diarrhoea virus; settings: for EC50: Bovine viral diarrhea virus isolates and strains, MDBK, in Bos taurus, read-out: BVDV EC50
HSV-1 = assay: microbe, parasite or virus in culture; type: cell-based, human herpes 1; settings: Human alphaherpesvirus 1, Vero 76, read-out: HSV-1 EC50
VV = assay: microbe, parasite or virus in culture; type: cell-based; settings: Orthopoxvirus vaccinia, Vero 76, read-out: VV EC50
YFV = assay: microbe, parasite or virus in culture; type: cell-based; settings: Yellow fever virus, BHK, read-out: YFV EC50
in vitro [3] = settings: Syrian hamster (Mesocricetus auratus)
in vitro [4] = settings: human
RSV = assay: microbe, parasite or virus in culture; type: cell-based, human respiratory syncytial virus; settings: human respiratory syncytial virus, Vero 76, read-out: RSV EC50
CV-B5 = assay: microbe, parasite or virus in culture; type: cell-based, coxsackievirus B5; settings: Enterovirus B, CVB5, Vero 76, read-out: CV-B5 EC50
Reo-1 = assay: microbe, parasite or virus in culture; type: cell-based, reovirus type-1; settings: Reovirus sp., BHK, read-out: Reo-1 EC50

Row | Compound | EC50 (HIV-1) [µM] | melting point [°C] | EC50 (Sb-1) [µM] | CC50 (in vitro [1]) [µM] | CC50 (in vitro [2]) [µM] | EC50 (VSV) [µM] | activity against BVDV (in words) (BVDV) | EC50 (BVDV) [µM] | EC50 (HSV-1) [µM] | EC50 (VV) [µM] | EC50 (YFV) [µM] | CC50 (in vitro [3]) [µM] | CC50 (in vitro [4]) [µM] | EC50 (RSV) [µM] | EC50 (CV-B5) [µM] | EC50 (Reo-1) [µM]
1 | Cc1ccc(Cl)cc1NC(=S)NCCc1c[nH]c2ccccc12 [Compound 26, 1-(2-(1H-Indol-3-yl)ethyl)-3-(3-chloro-6-methylphenyl)thiourea] | > 45 | 163 to 165 | > 17 | 17 | 42 | > 17 | showed activity | 15 ± 1.2 | > 17 | > 17 | > 12 | 12 | 45 | > 17 | > 17 | > 12
2 | S=C(NCCc1c[nH]c2ccccc12)NCc1ccccc1 [Compound 10, 1-(2-(1H-Indol-3-yl)ethyl)-3-benzylthiourea] | > 78 |  | > 100 | > 100 | > 100 | > 100 |  | > 100 | > 100 | > 100 | > 52 | 52 | 78 | > 100 | 30 ± 2.4 | > 52
3 | S=C(NCCc1c[nH]c2ccccc12)Nc1ccc(Cl)cc1 [Compound 4, 1-(2-(1H-Indol-3-yl)ethyl)-3-(4-chlorophenyl)thiourea] | > 45 |  | > 55 | 55 | > 100 | > 55 |  | > 100 | > 55 | > 55 | > 47 | 47 | 45 | > 55 | > 55 | > 47
4 | FC(F)(F)c1cccc(NC(=S)NCCc2c[nH]c3ccccc23)c1 [Compound 24, 1-(2-(1H-Indol-3-yl)ethyl)-3-(3-(trifluoromethyl)phenyl)thiourea] | > 44 | 169 to 171 | > 16 | 16 | 23 | > 16 |  | > 23 | > 16 | > 16 | > 9 | 9 | 44 | > 16 | > 16 | > 9
5 | Cc1ccc(NC(=S)NCCc2c[nH]c3ccccc23)cc1Cl [Compound 23, 1-(2-(1H-Indol-3-yl)ethyl)-3-(3-chloro-4-methylphenyl)thiourea] | > 44 | 161 to 163 | > 17 | 17 | 25 | > 17 |  | > 25 | > 17 | > 17 | > 10 | 10 | 44 | > 17 | > 17 | > 10
6 | Nc1nc2c(ncn2COCCO)c(=O)[nH]1 [Acycloguanosine, acycloguanosine, reference compound] |  |  |  | > 100 |  |  |  |  | 3 ± 0.2 |  |  |  |  |  |  | 
7 | Fc1ccc(NC(=S)NCCc2c[nH]c3ccccc23)cc1 [Compound 17, 1-(2-(1H-Indol-3-yl)ethyl)-3-(4-fluorophenyl)thiourea] | > 44 |  | > 53 | 53 | 53 | > 53 |  | > 53 | > 53 | > 53 | > 30 | 30 | 44 | > 53 | > 53 | > 30
8 | S=C(NCCc1c[nH]c2ccccc12)Nc1ccccc1 [Compound 1, 1-(2-(1H-Indol-3-yl)ethyl)-3-phenylthiourea] | > 31 |  | > 64 | 64 | > 100 | > 64 |  | > 100 | > 64 | > 64 | > 48 | 48 | 31 | > 64 | > 64 | > 48
9 | O=C(NC(=S)NCCc1c[nH]c2ccccc12)c1ccccc1 [Compound 5, 1-(2-(1H-Indol-3-yl)ethyl)-3-benzoylthiourea] | > 38 |  | > 29 | 29 | 67 | > 29 | showed activity | 20 ± 1.5 | > 29 | > 29 | > 34 | 34 | 38 | > 29 | > 29 | > 34
10 | COc1c(C)c2c(c(O)c1C/C=C(\C)CCC(=O)O)C(=O)OC2 [Mycophenolic acid, mycophenolic acid, reference compound] |  |  |  | 13 |  |  |  |  |  | 1.5 ± 0.2 |  |  |  |  |  | 
11 | CCCCc1ccc(NC(=S)NCCc2c[nH]c3ccccc23)c(C)c1 [Compound 27, 1-(2-(1H-Indol-3-yl)ethyl)-3-(4-butyl-2-methylphenyl)thiourea] | > 45 | 172 to 174 | > 12 | 12 | 11 | > 12 |  | > 11 | > 12 | > 12 | > 9.5 | 9.5 | 45 | > 12 | > 12 | > 9.5
12 | Fc1cccc(NC(=S)NCCc2c[nH]c3ccccc23)c1 [Compound 12, 1-(2-(1H-Indol-3-yl)ethyl)-3-(3-fluorophenyl)thiourea] | > 47 | 162 to 164 | > 60 | 60 | 49 | > 60 |  | > 49 | > 60 | > 60 | > 16 | 16 | 47 | > 60 | > 60 | > 16
13 | C[C@@]1(O)[C@H](O)[C@@H](CO)O[C@H]1n1ccc(N)nc1=O [2′-C-methyl-cytidine, 2′-C-methylcytidine, reference compound] |  |  | 7.3 ± 0.4 | > 100 |  |  |  |  |  |  |  | > 100 |  |  | 18 ± 0.9 | 10 ± 1.2
14 | S=C(NCCc1c[nH]c2ccccc12)Nc1ccccc1Cl [Compound 13, 1-(2-(1H-Indol-3-yl)ethyl)-3-(2-chlorophenyl)thiourea] | > 47 | 170 to 172 | > 53 | 53 | 49 | > 53 |  | > 49 | > 53 | > 53 | > 11 | 11 | 47 | > 53 | 12 ± 0.9 | > 11
15 | S=C(NCCc1c[nH]c2ccccc12)NC1CCCCC1 [Compound 9, 1-(2-(1H-Indol-3-yl)ethyl)-3-cyclohexylthiourea] | > 49 |  | > 14 | 14 | 55 | > 14 |  | > 55 | > 14 | > 14 | > 13 | 13 | 49 | > 14 | > 14 | > 13
16 | Fc1ccccc1NC(=S)NCCc1c[nH]c2ccccc12 [Compound 11, 1-(2-(1H-Indol-3-yl)ethyl)-3-(2-fluorophenyl)thiourea] | > 48 | 167 to 168 | > 73 | 73 | 69 | > 73 |  | > 69 | > 73 | > 73 | > 34 | 34 | 48 | > 73 | > 73 | > 34
17 | Fc1ccc(NC(=S)NCCc2c[nH]c3ccccc23)cc1Cl [Compound 28, 1-(2-(1H-Indol-3-yl)ethyl)-3-(3-chloro-4-fluorophenyl)thiourea] | > 45 | 162 to 164 | > 32 | 32 | 37 | > 32 | showed activity | 13 ± 1.2 | > 32 | > 32 | > 30 | 30 | 45 | > 32 | 20 ± 2.1 | > 30
18 | S=C(NCCc1c[nH]c2ccccc12)Nc1cccc(Br)c1 [Compound 7, 1-(2-(1H-Indol-3-yl)ethyl)-3-(3-bromophenyl)thiourea] | > 45 | 152 to 154 | > 12 | 12 | 55 | > 12 | showed activity | 20 ± 2 | > 12 | > 12 | > 10 | 10 | 45 | > 12 | > 12 | > 10
